Measurements: PubChem BioAssay AID1963979 (Molecular Pharmacology Branch, DTP, NCI, 2024)

Tested on: 361931-004-R-J1-PDC multicell spheroid viability
Assay: Anticancer human tumor 361931-004-R-J1-PDC patient-derived colon adenocarcinoma cell line growth inhibition [PI3K]
Conditions: for IC50: curve of first compound; for viability, T/C: stronger effect = lower value
Procedure, shortened: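 We assembled tumor spheroids that included a stromal compartment of HUVEC and MSCs, then exposed them to targeted agents alone and together with PI3K pathway inhibitors. Concentration series descended by half-log from clinically achievable Cmax levels. Viability served as the endpoint.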

[1] = second compound 0.00316 µM, first compound 0.0316 µM
[2] = second compound 0.00316 µM, first compound 0.1 µM
[3] = second compound 0.00316 µM, first compound 0.316 µM
[4] = second compound 0.00316 µM, first compound 1 µM
[5] = second compound 0.00316 µM, first compound 3.16 µM
[6] = second compound 0.00316 µM, first compound 10 µM
[7] = second compound 0.01 µM, first compound 0.0316 µM
[8] = second compound 0.01 µM, first compound 0.1 µM
[9] = second compound 0.01 µM, first compound 0.316 µM
[10] = second compound 0.01 µM, first compound 1 µM
[11] = second compound 0.01 µM, first compound 3.16 µM
[12] = second compound 0.01 µM, first compound 10 µM
[13] = second compound 0.0316 µM, first compound 0.0316 µM
[14] = second compound 0.0316 µM, first compound 0.1 µM
[15] = second compound 0.0316 µM, first compound 0.316 µM
[16] = second compound 0.0316 µM, first compound 1 µM
[17] = second compound 0.0316 µM, first compound 3.16 µM
[18] = second compound 0.0316 µM, first compound 10 µM
[19] = second compound 0.1 µM, first compound 0.0316 µM
[20] = second compound 0.1 µM, first compound 0.1 µM
[21] = second compound 0.1 µM, first compound 0.316 µM
[22] = second compound 0.1 µM, first compound 1 µM
[23] = second compound 0.1 µM, first compound 3.16 µM
[24] = second compound 0.1 µM, first compound 10 µM
[25] = second compound 0.316 µM, first compound 0.0316 µM
[26] = second compound 0.316 µM, first compound 0.1 µM
[27] = second compound 0.316 µM, first compound 0.316 µM
[28] = second compound 0.316 µM, first compound 1 µM
[29] = second compound 0.316 µM, first compound 3.16 µM
[30] = second compound 0.316 µM, first compound 10 µM
[31] = second compound 1 µM, first compound 0.0316 µM
[32] = second compound 1 µM, first compound 0.1 µM
[33] = second compound 1 µM, first compound 0.316 µM
[34] = second compound 1 µM, first compound 1 µM
[35] = second compound 1 µM, first compound 3.16 µM
[36] = second compound 1 µM, first compound 10 µM
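Also: spheroids exposed to agents for seven days before readout.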

Q: Which results are given for `CCCS(=O)(=O)Nc1ccc(F)c(C(=O)c2c[nH]c3ncc(-c4ccc(Cl)cc4)cc23)c1F` + COc1c(OCCCN2CCOCC2)ccc2c3n(c(=NC(=O)c4cnc(N)nc4)nc12)CCN3?
A: IC50 (second compound 0.00316 µM): 4620 nM; IC50 (second compound 0.01 µM): 4730 nM; IC50 (second compound 0.0316 µM): 4480 nM; IC50 (second compound 0.1 µM): 1570 nM; IC50 (second compound 0.316 µM): 48.7 nM; IC50 (second compound 1 µM): < 31.6 nM; viability, T/C [1]: 102%; viability, T/C [2]: 104%; viability, T/C [3]: 93.7%; viability, T/C [4]: 89.8%; viability, T/C [5]: 72.3%; viability, T/C [6]: 7.97%; viability, T/C [7]: 107%; viability, T/C [8]: 93.1%; viability, T/C [9]: 94%; viability, T/C [10]: 88.1%; viability, T/C [11]: 75.6%; viability, T/C [12]: 6.49%; viability, T/C [13]: 93%; viability, T/C [14]: 87.3%; viability, T/C [15]: 77.5%; viability, T/C [16]: 83.3%; viability, T/C [17]: 69.4%; viability, T/C [18]: 6.55%; viability, T/C [19]: 89.1%; viability, T/C [20]: 72.5%; viability, T/C [21]: 67.4%; viability, T/C [22]: 53%; viability, T/C [23]: 47.6%; viability, T/C [24]: 5.33%; viability, T/C [25]: 54.1%; viability, T/C [26]: 45.5%; viability, T/C [27]: 28.9%; viability, T/C [28]: 27.4%; viability, T/C [29]: 17.8%; viability, T/C [30]: 3.29%; viability, T/C [31]: 20.6%; viability, T/C [32]: 21.3%; viability, T/C [33]: 14%; viability, T/C [34]: 9.73%; viability, T/C [35]: 7.59%; viability, T/C [36]: 2.7%

Q: Which results are given for `C[C@@H](NC(=O)c1ncnc(N)c1Cl)c1ncc(C(=O)Nc2cc(C(F)(F)F)c(Cl)cn2)s1` + COc1c(OCCCN2CCOCC2)ccc2c3n(c(=NC(=O)c4cnc(N)nc4)nc12)CCN3?
A: IC50 (second compound 0.00316 µM): > 10000 nM; IC50 (second compound 0.01 µM): > 10000 nM; IC50 (second compound 0.0316 µM): > 10000 nM; IC50 (second compound 0.1 µM): 5010 nM; IC50 (second compound 0.316 µM): 213 nM; IC50 (second compound 1 µM): < 31.6 nM; viability, T/C [1]: 108%; viability, T/C [2]: 101%; viability, T/C [3]: 108%; viability, T/C [4]: 102%; viability, T/C [5]: 109%; viability, T/C [6]: 89.2%; viability, T/C [7]: 110%; viability, T/C [8]: 99.9%; viability, T/C [9]: 105%; viability, T/C [10]: 98%; viability, T/C [11]: 98.4%; viability, T/C [12]: 89%; viability, T/C [13]: 98.6%; viability, T/C [14]: 100%; viability, T/C [15]: 96.6%; viability, T/C [16]: 87.7%; viability, T/C [17]: 89.2%; viability, T/C [18]: 71.2%; viability, T/C [19]: 85.9%; viability, T/C [20]: 86.1%; viability, T/C [21]: 91.1%; viability, T/C [22]: 71.3%; viability, T/C [23]: 64.5%; viability, T/C [24]: 31%; viability, T/C [25]: 58%; viability, T/C [26]: 54.3%; viability, T/C [27]: 46.5%; viability, T/C [28]: 39.9%; viability, T/C [29]: 25.7%; viability, T/C [30]: 7.73%; viability, T/C [31]: 26.1%; viability, T/C [32]: 25.8%; viability, T/C [33]: 17.7%; viability, T/C [34]: 11.8%; viability, T/C [35]: 8.36%; viability, T/C [36]: 1.75%

Q: Which results are given for `Cn1ncnc1[C@H]1c2n[nH]c(=O)c3cc(F)cc(c23)N[C@@H]1c1ccc(F)cc1` + COc1c(OCCCN2CCOCC2)ccc2c3n(c(=NC(=O)c4cnc(N)nc4)nc12)CCN3?
A: IC50 (second compound 0.00316 µM): > 100 nM; IC50 (second compound 0.01 µM): > 100 nM; IC50 (second compound 0.0316 µM): > 100 nM; IC50 (second compound 0.1 µM): > 100 nM; IC50 (second compound 0.316 µM): 1.1 nM; IC50 (second compound 1 µM): < 0.316 nM; viability, T/C (second compound 0.00316 µM, first compound 0.000316 µM): 105%; viability, T/C (second compound 0.00316 µM, first compound 0.001 µM): 106%; viability, T/C (second compound 0.00316 µM, first compound 0.00316 µM): 97.9%; viability, T/C (second compound 0.00316 µM, first compound 0.01 µM): 98.2%; viability, T/C [1]: 101%; viability, T/C [2]: 87.8%; viability, T/C (second compound 0.01 µM, first compound 0.000316 µM): 91.1%; viability, T/C (second compound 0.01 µM, first compound 0.001 µM): 97.1%; viability, T/C (second compound 0.01 µM, first compound 0.00316 µM): 102%; viability, T/C (second compound 0.01 µM, first compound 0.01 µM): 93%; viability, T/C [7]: 91.5%; viability, T/C [8]: 84.9%; viability, T/C (second compound 0.0316 µM, first compound 0.000316 µM): 97%; viability, T/C (second compound 0.0316 µM, first compound 0.001 µM): 87%; viability, T/C (second compound 0.0316 µM, first compound 0.00316 µM): 90%; viability, T/C (second compound 0.0316 µM, first compound 0.01 µM): 82.7%; viability, T/C [13]: 87.3%; viability, T/C [14]: 77.9%; viability, T/C (second compound 0.1 µM, first compound 0.000316 µM): 81.7%; viability, T/C (second compound 0.1 µM, first compound 0.001 µM): 73.5%; viability, T/C (second compound 0.1 µM, first compound 0.00316 µM): 78.6%; viability, T/C (second compound 0.1 µM, first compound 0.01 µM): 72.4%; viability, T/C [19]: 80.3%; viability, T/C [20]: 64.7%; viability, T/C (second compound 0.316 µM, first compound 0.000316 µM): 50.5%; viability, T/C (second compound 0.316 µM, first compound 0.001 µM): 53.9%; viability, T/C (second compound 0.316 µM, first compound 0.00316 µM): 48.3%; viability, T/C (second compound 0.316 µM, first compound 0.01 µM): 41.5%; viability, T/C [25]: 41%; viability, T/C [26]: 39.2%; viability, T/C (second compound 1 µM, first compound 0.000316 µM): 15.9%; viability, T/C (second compound 1 µM, first compound 0.001 µM): 19.1%; viability, T/C (second compound 1 µM, first compound 0.00316 µM): 20.5%; viability, T/C (second compound 1 µM, first compound 0.01 µM): 19.7%; viability, T/C [31]: 16.3%; viability, T/C [32]: 17.6%
